Results reported in PubChem BioAssay (NCI).
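1) Cells in 96-well plates. 2) Compound, 48 h, 5 concentrations. 3) Linear interpolation between surrounding doses. 4) Unreached endpoint = highest concentration. Here, GI50 denotes the concentration required for 50% inhibition of growth. TGI is the concentration that stops growth completely.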

Key:
Assay in all cases: NCI-60 cell line screen, 48 h
[1] = tested on: 786-0 renal
[2] = tested on: A498 renal
[3] = tested on: A549 NSCLC
[4] = tested on: ACHN renal
[5] = tested on: BT-549 breast
[6] = tested on: CAKI-1 renal
[7] = tested on: CCRF-CEM leukemia
[8] = tested on: COLO 205 colon
[9] = tested on: DU-145 prostate
[10] = tested on: EKVX NSCLC
[11] = tested on: HCC-2998 colon
[12] = tested on: HCT-116 colon
[13] = tested on: HCT-15 colon
[14] = tested on: HL-60(TB) leukemia
[15] = tested on: HOP-62 NSCLC
[16] = tested on: HOP-92 NSCLC
[17] = tested on: HS 578T breast
[18] = tested on: HT29 colon
[19] = tested on: IGROV1 ovarian
[20] = tested on: K-562 leukemia
[21] = tested on: KM12 colon
[22] = tested on: LOX IMVI melanoma
[23] = tested on: M14 melanoma
[24] = tested on: MALME-3M melanoma
[25] = tested on: MCF7 breast
[26] = tested on: MDA-MB-231 breast
[27] = tested on: MDA-MB-435
[28] = tested on: MDA-MB-468 breast
[29] = tested on: MOLT-4 leukemia
[30] = tested on: NCI-H226 lung
[31] = tested on: NCI-H23 lung
[32] = tested on: NCI-H460 lung
[33] = tested on: NCI-H522 lung
[34] = tested on: OVCAR-3 ovarian
[35] = tested on: OVCAR-4 ovarian
[36] = tested on: OVCAR-5 ovarian
[37] = tested on: OVCAR-8 ovarian
[38] = tested on: PC-3 prostate
[39] = tested on: RPMI-8226 leukemia
[40] = tested on: RXF 393 renal
[41] = tested on: SF-268 CNS
[42] = tested on: SF-295 CNS
[43] = tested on: SF-539 CNS
[44] = tested on: SK-MEL-2 melanoma
[45] = tested on: SK-MEL-28 melanoma
[46] = tested on: SK-MEL-5 melanoma
[47] = tested on: SK-OV-3 ovarian
[48] = tested on: SN12C renal
[49] = tested on: SNB-19 CNS
[50] = tested on: SR leukemia
[51] = tested on: SW-620 colon
[52] = tested on: T-47D breast
[53] = tested on: TK-10 renal
[54] = tested on: U251 CNS
[55] = tested on: UACC-257 melanoma
[56] = tested on: UACC-62 melanoma
[57] = tested on: UO-31 renal
[58] = tested on: NCI/ADR-RES ovarian

For COc1ccc(-c2cc(-c3cc(OC)c(OC)c(OC)c3)[nH]c(=O)c2C#N)cc1, the GI50 [1] was 4.88 µM, the TGI [1] was 20.1 µM and the GI50 [2] was 3.81 µM. It also gave a TGI [2] of 23.4 µM, a GI50 [3] of 14 µM and a TGI [3] of over 100 µM. It also gave a GI50 [4] of 9.76 µM, a TGI [4] of 32.2 µM and a GI50 [5] of 16.5 µM. For the same molecule, the TGI [5] was 48 µM, the GI50 [6] was 6.96 µM and the TGI [6] was 31.4 µM. The GI50 [7] was over 100 µM, the TGI [7] was over 100 µM and the GI50 [8] was over 100 µM. For the same molecule, the TGI [8] was over 100 µM, the GI50 [9] was 88.1 µM and the TGI [9] was over 100 µM. The GI50 [10] was 21.3 µM, the TGI [10] was over 100 µM and the GI50 [11] was over 100 µM. For the same molecule, the TGI [11] was over 100 µM, the GI50 [12] was 55.9 µM and the TGI [12] was over 100 µM. For the same molecule, the GI50 [13] was 96.3 µM, the TGI [13] was over 100 µM and the GI50 [14] was over 100 µM. For the same molecule, the TGI [14] was over 100 µM, the GI50 [15] was 7.08 µM and the TGI [15] was 24.1 µM. For the same molecule, the GI50 [16] was 1.97 µM, the TGI [16] was 8.17 µM and the GI50 [17] was 5.67 µM. For the same molecule, the TGI [17] was 56.8 µM, the GI50 [18] was 71.6 µM and the TGI [18] was over 100 µM. The GI50 [19] was 15.1 µM, the TGI [19] was 76.3 µM and the GI50 [20] was over 100 µM. It also gave a TGI [20] of over 100 µM, a GI50 [21] of over 100 µM and a TGI [21] of over 100 µM. It also gave a GI50 [22] of 14 µM, a TGI [22] of 47.4 µM and a GI50 [23] of over 100 µM. It also gave a TGI [23] of over 100 µM, a GI50 [24] of 19.3 µM and a TGI [24] of 97.3 µM. The GI50 [25] was 23.8 µM, the TGI [25] was over 100 µM and the GI50 [26] was 3.76 µM. It also gave a TGI [26] of 18.4 µM, a GI50 [27] of over 100 µM and a TGI [27] of over 100 µM. For the same molecule, the GI50 [28] was 17.8 µM, the TGI [28] was 47 µM and the GI50 [29] was over 100 µM. For the same molecule, the TGI [29] was over 100 µM, the GI50 [30] was 5.6 µM and the TGI [30] was 24.9 µM. The GI50 [31] was 18.9 µM, the TGI [31] was 62.1 µM and the GI50 [32] was 12.9 µM. It also gave a TGI [32] of 44.3 µM, a GI50 [33] of 20.3 µM and a TGI [33] of 64.4 µM. The GI50 [34] was 62.7 µM, the TGI [34] was over 100 µM and the GI50 [35] was 4.24 µM. It also gave a TGI [35] of 29.8 µM, a GI50 [36] of over 100 µM and a TGI [36] of over 100 µM. For the same molecule, the GI50 [37] was 4.3 µM, the TGI [37] was 22.4 µM and the GI50 [38] was 25.5 µM. It also gave a TGI [38] of over 100 µM, a GI50 [39] of over 100 µM and a TGI [39] of over 100 µM. For the same molecule, the GI50 [40] was 2.35 µM, the TGI [40] was 12.1 µM and the GI50 [41] was 16.9 µM. It also gave a TGI [41] of 79.5 µM, a GI50 [42] of 12.3 µM and a TGI [42] of 32.3 µM. The GI50 [43] was 5.79 µM, the TGI [43] was 20.2 µM and the GI50 [44] was 14.6 µM. It also gave a TGI [44] of 30.8 µM, a GI50 [45] of 46 µM and a TGI [45] of over 100 µM. For the same molecule, the GI50 [46] was 17.1 µM, the TGI [46] was 64.7 µM and the GI50 [47] was 7.52 µM. For the same molecule, the TGI [47] was 26.7 µM, the GI50 [48] was 3.8 µM and the TGI [48] was 61.6 µM. It also gave a GI50 [49] of 6.4 µM, a TGI [49] of 35.8 µM and a GI50 [50] of over 100 µM. It also gave a TGI [50] of over 100 µM, a GI50 [51] of 71.8 µM and a TGI [51] of over 100 µM. It also gave a GI50 [52] of 7.72 µM, a TGI [52] of over 100 µM and a GI50 [53] of 19.8 µM. It also gave a TGI [53] of over 100 µM, a GI50 [54] of 4.48 µM and a TGI [54] of 22.4 µM. It also gave a GI50 [55] of 76.6 µM, a TGI [55] of over 100 µM and a GI50 [56] of 27.2 µM. It also gave a TGI [56] of over 100 µM, a GI50 [57] of 3.54 µM and a TGI [57] of 25.2 µM.

COc1cc2cc(C(=O)N3C[C@@H](CCl)c4c3cc(OC(=O)N3CCN(C)[C@@H]5CSSC[C@@H]53)c3ccccc43)[nH]c2c(OC)c1OC showed a GI50 [1] of 0.197 µM, a TGI [1] of 0.579 µM and a GI50 [2] of 1.23 µM. It also gave a TGI [2] of 3.88 µM, a GI50 [3] of 0.18 µM and a TGI [3] of over 100 µM. For the same molecule, the GI50 [4] was 0.0282 µM, the TGI [4] was 0.222 µM and the GI50 [5] was 0.165 µM. The TGI [5] was 0.593 µM, the GI50 [6] was 0.248 µM and the TGI [6] was over 100 µM. It also gave a GI50 [7] of 0.105 µM, a TGI [7] of 1.39 µM and a GI50 [8] of 0.328 µM. The TGI [8] was 1.64 µM, the GI50 [9] was 0.0626 µM and the TGI [9] was over 100 µM. The GI50 [10] was 0.23 µM, the TGI [10] was 1.81 µM and the GI50 [12] was 0.187 µM. The TGI [12] was over 100 µM, the GI50 [13] was 0.247 µM and the TGI [13] was 11.7 µM. It also gave a GI50 [14] of 0.052 µM, a TGI [14] of 0.64 µM and a GI50 [15] of 0.205 µM. It also gave a TGI [15] of 0.925 µM, a GI50 [16] of 0.238 µM and a TGI [16] of 0.809 µM. The GI50 [17] was 2.26 µM, the TGI [17] was 7.04 µM and the GI50 [18] was 0.226 µM. For the same molecule, the TGI [18] was 37.3 µM, the GI50 [19] was 1.53 µM and the TGI [19] was over 100 µM. It also gave a GI50 [20] of 0.397 µM, a TGI [20] of over 100 µM and a GI50 [21] of 1.1 µM. The TGI [21] was 26.7 µM, the GI50 [22] was 0.165 µM and the TGI [22] was 0.829 µM. It also gave a GI50 [23] of 0.251 µM, a TGI [23] of 1.06 µM and a GI50 [24] of 0.213 µM. It also gave a TGI [24] of 0.719 µM, a GI50 [25] of 0.0281 µM and a TGI [25] of 12.9 µM. For the same molecule, the GI50 [27] was 0.836 µM, the TGI [27] was 2.93 µM and the GI50 [28] was 0.164 µM. It also gave a TGI [28] of 0.392 µM, a GI50 [29] of 0.0697 µM and a TGI [29] of 1.78 µM. For the same molecule, the GI50 [30] was 1.02 µM, the TGI [30] was 7.85 µM and the GI50 [31] was 0.0454 µM. It also gave a TGI [31] of 0.186 µM, a GI50 [33] of 0.146 µM and a TGI [33] of 0.531 µM. It also gave a GI50 [58] of 0.148 µM, a TGI [58] of 0.613 µM and a GI50 [34] of 0.489 µM. For the same molecule, the TGI [34] was 5.54 µM, the GI50 [35] was 1.62 µM and the TGI [35] was over 100 µM. For the same molecule, the GI50 [36] was 0.284 µM, the TGI [36] was 1.4 µM and the GI50 [37] was 0.151 µM. It also gave a TGI [37] of 2.21 µM, a GI50 [38] of 0.358 µM and a TGI [38] of 13.7 µM. For the same molecule, the GI50 [39] was 0.161 µM, the TGI [39] was 0.569 µM and the GI50 [40] was 0.132 µM. It also gave a TGI [40] of 0.273 µM, a GI50 [41] of 0.175 µM and a TGI [41] of 12.2 µM. It also gave a GI50 [42] of 0.133 µM, a TGI [42] of 0.474 µM and a GI50 [43] of 0.172 µM. The TGI [43] was 0.477 µM, the GI50 [45] was 0.261 µM and the TGI [45] was 0.762 µM. It also gave a GI50 [48] of 0.203 µM, a TGI [48] of 31.7 µM and a GI50 [49] of 0.224 µM. It also gave a TGI [49] of 6.41 µM, a GI50 [50] of 0.0373 µM and a TGI [50] of 0.299 µM. For the same molecule, the GI50 [51] was 0.264 µM, the TGI [51] was over 100 µM and the GI50 [52] was 0.287 µM. For the same molecule, the TGI [52] was over 100 µM, the GI50 [53] was 1.29 µM and the TGI [53] was over 100 µM. For the same molecule, the GI50 [55] was 0.501 µM, the TGI [55] was 2.99 µM and the GI50 [56] was 0.147 µM. The TGI [56] was 0.665 µM.
